These results are taken from patent publication US8163909B2, “Substituted hydroxyethyl amine compounds as beta-secretase modulators and methods of use” (Amgen Inc., priority 2007, dated 2012).

The target in experiment [1] is Beta Secretase enzyme (BACE) (Homo sapiens, UniProt P56817). Briefly: In vitro enzymatic BACE FRET (fluorescence resonance energy transfer) assay.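 Note: fluorescence read after 1 h with 50 nM quenched peptide substrate spanning the BACE cleavage site, in pH 4.2 acetate buffer containing 10% DMSO and nonionic detergent.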 It counts as biochemical.
Sequence of Beta Secretase enzyme (BACE) (P56817 46-501): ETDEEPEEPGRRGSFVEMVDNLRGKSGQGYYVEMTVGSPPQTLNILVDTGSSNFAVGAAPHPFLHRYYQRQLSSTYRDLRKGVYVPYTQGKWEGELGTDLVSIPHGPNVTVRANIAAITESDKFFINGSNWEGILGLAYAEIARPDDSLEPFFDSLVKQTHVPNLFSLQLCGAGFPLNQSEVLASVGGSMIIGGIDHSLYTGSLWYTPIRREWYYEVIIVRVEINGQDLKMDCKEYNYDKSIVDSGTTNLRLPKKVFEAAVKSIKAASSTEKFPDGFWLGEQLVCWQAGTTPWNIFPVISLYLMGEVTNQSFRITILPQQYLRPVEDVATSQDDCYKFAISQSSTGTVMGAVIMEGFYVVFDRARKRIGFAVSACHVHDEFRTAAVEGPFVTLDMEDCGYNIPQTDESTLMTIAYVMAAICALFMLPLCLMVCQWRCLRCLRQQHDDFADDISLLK
In experiment [2] the test system is Aβ40 in conditioned medium of cells stably expressing Amyloid Precursor Protein (APP). The experiment in a line: In vitro BACE cell-based assay (Aβ40 in conditioned medium, sandwich ELISA).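 Note: compounds added as a dilution series, secreted peptide quantified by europium time-resolved fluorescence readout, potency fitted from percent of control versus compound concentration.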 On the technique in general: In an ELISA, binding on a coated surface is turned into a signal by an enzyme label.
Setting [3] is: BACE enzyme assay, read-out: BACE1 FRET assay (IC50).
The mark [4] stands for this setting: Homo sapiens, HEK293, HEK cells, cell-based assay, read-out: HEK cell assay (IC50).
The mark [5] stands for this setting: BACE enzyme FRET assay, read-out: BACE1 FRET assay (IC50).
Setting [6] is: Table 1, read-out: BACE1 FRET assay.
Setting [7] is: Homo sapiens, HEK293, Table 1, HEK cells, read-out: HEK cell assay.

Structures are written as SMILES. Like-named read-outs stand apart in the source and are kept apart here. A value given as a limit tells only on which side of the number the result lay.

Regarding `CC(=O)Nc1cnc2c(c1)[C@@H](NC[C@@H](O)[C@H](Cc1ccc(F)cc1)NC(C)=O)CC1(CCC1)O2` [compound 83, N-((1S,2R)-3-(((4′S)-6′-(acetylamino)-3′,4′-dihydrospiro[cyclobutane-1,2′-pyrano[2,3-b]pyridin]-4′-yl)amino)-1-((4-fluorophenyl)methyl)-2-hydroxypropyl)acetamide], the results for the IC50 in experiment [1] (setting [3]) and in experiment [2] (setting [4]) were 0.593 µM and > 10 µM, respectively.
As to `COCC(=O)N[C@@H](Cc1ccc(F)c(OC(F)F)c1)[C@H](O)CN[C@H]1CC2(CCC2)Oc2ncc(CC(C)(C)C)cc21` [compound 214], the IC50 amounted to 0.00877 µM in experiment [1] (setting [5]) and 0.00903 µM in experiment [2] (setting [4]).
For `COCC(=O)N[C@@H](Cc1ccc2c(c1)OCCO2)[C@H](O)CN[C@H]1CC2(CCC2)Oc2ncc(CC(C)(C)C)cc21` [compound 206] the same measures were 0.0227 µM and 0.0425 µM.
In the case of `CC(=O)N[C@@H](Cc1ccc(F)c(Br)c1)[C@H](O)CN(C)[C@H]1CC2(CCC2)Oc2ncc(CC(C)(C)C)cc21` [compound 354], the IC50 worked out at 4.78 µM in experiment [1] (setting [6]) and 3.49 µM in experiment [2] (setting [7]).
With `COCC(=O)N[C@@H](Cc1ccc(F)cc1)[C@H](O)CN[C@H]1CC2(CCC2)Oc2c1cc(CC(C)(C)C)nc2C` [compound 153], the IC50 in experiment [1] (setting [3]) worked out at 0.2 µM; in experiment [2] (setting [4]), 0.153 µM.
Turning to `CO[C@@H](C)C(=O)N[C@@H](Cc1cc(F)c2c(c1)OCO2)[C@H](O)CN[C@H]1CC2(CCC2)Oc2ncc(CC(C)(C)C)cc21` [compound 304], the IC50 in experiment [1] (setting [5]) is 0.0376 µM; in experiment [2] (setting [4]) it was 0.0882 µM.
Regarding `CC(C)(C)Cc1cnc2c(c1)[C@@H](NC[C@@H](O)[C@H](Cc1ccc3c(c1)OCO3)NC(=O)CCl)CC1(CCC1)O2` [compound 309], the results for the IC50 in experiment [1] (setting [5]) and in experiment [2] (setting [4]) were 0.0206 µM and 0.04 µM, respectively.
The like results for `CO[C@@H](C)C(=O)N[C@@H](Cc1ccc2c(c1)OC(F)(F)O2)[C@H](O)CN[C@H]1CC2(CCC2)Oc2ncc(CC(C)(C)C)cc21` [compound 296] were, in that order, 0.102 µM and 0.575 µM.
As for `COCC(=O)N[C@@H](Cc1ccccc1)[C@H](O)CN[C@H]1CC2(CCC2)Oc2c1cc(CC(C)(C)C)nc2N(C)C` [compound 113], the IC50 in experiment [1] (setting [3]) was 0.0265 µM; in experiment [2] (setting [4]), 0.497 µM.
The like results for `CC(F)(F)Oc1cnc2c(c1)[C@@H](NC[C@@H](O)[C@H](Cc1cccc(F)c1)NC(=O)[C@@H]1CCC(=O)O1)CC1(CCC1)O2` [compound 152] were, in that order, 0.0106 µM and 0.0336 µM.
In the case of `COCC(=O)NC(Cc1ccc2c(c1)OCO2)C(O)CNC1CC2(CC(O)C2)Oc2ncc(CC(C)C)cc21` [compound 246, N-((1S,2R)-1-(1,3-benzodioxol-5-ylmethyl)-2-hydroxy-3-(((1s,3S,4′S)-3-hydroxy-6′-(2-methylpropyl)-3′,4′-dihydrospiro[cyclobutane-1,2′-pyrano[2,3-b]pyridin]-4′-yl)amino)propyl)-2-(methyloxy)acetamide], the IC50 in experiment [1] (setting [5]) amounted to 0.0135 µM; in experiment [2] (setting [4]), 0.0164 µM.
For `CC(=O)NC(Cc1cccc(F)c1)C(O)CNC1CC2(CC(O)C2)Oc2cnccc21` [compound 237, N-((1S,2R)-1-((3-fluorophenyl)methyl)-2-hydroxy-3-(((1r,3R,4′S)-3-hydroxy-3′,4′-dihydrospiro[cyclobutane-1,2′-pyrano[2,3-c]pyridin]-4′-yl)amino)propyl)acetamide], the IC50 in experiment [1] (setting [5]) was determined as 6.42 µM; in experiment [2] (setting [4]) it was 2.45 µM.
Take `COCC(=O)N[C@@H](Cc1ccc2c(c1)OCO2)[C@H](O)CN[C@H]1CC2(CCC2)Oc2ncc(CC(C)(C)CF)cc21` [compound 181]: the IC50 in experiment [1] (setting [3]) is 0.0155 µM; in experiment [2] (setting [4]), 0.0176 µM.
For `CC(=O)NC(Cc1ccc2c(c1)OCO2)C(O)CNC1CC2(CC(C)C2)Oc2ncc(CC(C)C)cc21` [compound 132, N-((1S,2R)-1-(1,3-benzodioxol-5-ylmethyl)-2-hydroxy-3-(((1s,3R,4′S)-3-methyl-6′-(2-methylpropyl)-3′,4′-dihydrospiro[cyclobutane-1,2′-pyrano[2,3-b]pyridin]-4′-yl)amino)propyl)acetamide] the same measures were 0.0252 µM and 0.066 µM.
For `CC(=O)N[C@@H](Cc1cc(F)cc(F)c1)[C@H](O)CN[C@H]1CC2(CCC2)Oc2c(F)cc(CC(C)(C)C)cc21` [compound 224], the IC50 was 0.00467 µM in experiment [1] (setting [5]) and 0.0193 µM in experiment [2] (setting [4]).
`CC(=O)NC(Cc1ccc2c(c1)OCO2)C(O)CNC1CC2(CC(O)C2)Oc2ncc(CC(C)C)cc21` [compound 247, N-((1S,2R)-1-(1,3-benzodioxol-5-ylmethyl)-2-hydroxy-3-(((1s,3S,4′S)-3-hydroxy-6′-(2-methylpropyl)-3′,4′-dihydrospiro[cyclobutane-1,2′-pyrano[2,3-b]pyridin]-4′-yl)amino)propyl)acetamide]: the IC50 turned out to be 0.00677 µM in experiment [1] (setting [5]) and 0.0132 µM in experiment [2] (setting [4]).
As for `CC(C)(C)Cc1cnc2c(c1)[C@@H](NC[C@@H](O)[C@H](Cc1ccc(F)cc1)NC(=O)[C@H](O)C(F)(F)F)CC1(CCC1)O2` [compound 68], the results for the IC50 in experiment [1] (setting [3]) and in experiment [2] (setting [4]) were 0.0486 µM and 0.0553 µM, respectively.
In the case of `COCC(=O)N[C@@H](Cc1cc(Br)c2c(c1)OCO2)[C@H](O)CN[C@H]1CC2(CCC2)Oc2ncc(CC(C)(C)C)cc21` [compound 204], the IC50 in experiment [1] (setting [5]) worked out at 0.0956 µM; in experiment [2] (setting [4]), 0.0824 µM.
For the compound `CC(=O)N[C@@H](Cc1ccc(F)c(Cl)c1)[C@H](O)CN[C@H]1CC2(CCC2)Oc2ncc(CC(C)(C)C(F)F)cc21` [compound 215], the IC50 in experiment [1] (setting [5]) was determined as 0.00705 µM; in experiment [2] (setting [4]) it was 0.0264 µM.
Turning to `COC(C(=O)N[C@@H](Cc1ccc(F)cc1)[C@H](O)CN[C@H]1CC2(CCC2)Oc2ncc(CC(C)(C)C)cc21)C(F)(F)F` (stereo partly shown) [compound 59], the results for the IC50 in experiment [1] (setting [3]) and in experiment [2] (setting [4]) were 0.364 µM and 0.171 µM, respectively.
`CNc1nc(CC(C)(C)C)cc2c1OC1(CCC1)C[C@@H]2NC[C@@H](O)[C@H](Cc1ccc(F)cc1)NC(=O)COC` [compound 147]: the IC50 in experiment [1] (setting [3]) was found to be 0.0495 µM; in experiment [2] (setting [4]), 0.0232 µM.
For `CC(=O)N[C@@H](Cc1cccc(F)c1)[C@H](O)CN[C@H]1CC2(CCC2)Oc2ncc(C[C@@H](C)C(F)(F)F)cc21` [compound 315], the IC50 in experiment [1] (setting [6]) is 0.00611 µM; in experiment [2] (setting [7]), 0.00943 µM.
As for `CC(=O)N[C@@H](Cc1ccc(F)cc1)[C@H](O)CN[C@H]1CC2(CCC2)Oc2ccc(CC(C)(C)F)cc21` [compound 200], the IC50 in experiment [1] (setting [5]) is 0.206 µM; in experiment [2] (setting [4]), 0.375 µM.
Regarding `COCC(=O)N[C@@H](Cc1cc(F)cc(F)c1)[C@H](O)CN[C@H]1CC2(CCC2)Oc2ncc(CC(C)(C)F)cc21` [compound 286], the IC50 in experiment [1] (setting [5]) was determined as 0.00332 µM; in experiment [2] (setting [4]), 0.00599 µM.
On to `COCC(=O)N[C@@H](Cc1ccccc1)[C@H](O)CN[C@H]1CC2(CCC2)Oc2ncc(CC(C)(F)F)cc21` [compound 273], for which the IC50 in experiment [1] (setting [5]) was 0.0149 µM; in experiment [2] (setting [4]), 0.0265 µM.
As for `COc1cc(C[C@H](NC(=O)C(F)(F)F)[C@H](O)CN[C@H]2CC3(CCC3)Oc3ncc(CC(C)(C)C)cc32)ccc1F` [compound 80], the IC50 in experiment [1] (setting [3]) is 0.0123 µM; in experiment [2] (setting [4]), 0.125 µM.
`CC#Cc1cccc(C[C@H](NC(=O)[C@@H](C)OC)[C@H](O)CN[C@H]2CC3(CCC3)Oc3ncc(CC(C)(C)C)cc32)c1` [compound 895]: the IC50 in experiment [1] (BACE enzyme assay, IC50's in uM, read-out: BACE1 FRET assay) worked out at 0.016 µM; in experiment [2] (Homo sapiens, HEK293, cell-based assay, HEK cells, IC50's in uM, read-out: HEK cell assay) it was 0.017 µM.
`COC(C)C(=O)NC(Cc1ccc2c(c1)OCO2)C(O)CNC1CC2(CC(O)C2)Oc2ccc(CC(C)(C)C)cc21` [compound 268, (2R)—N-((1S,2R)-1-(1,3-benzodioxol-5-ylmethyl)-3-(((2s,3′S,4S)-6-(2,2-dimethylpropyl)-3′-hydroxy-3,4-dihydrospiro[chromene-2,1′-cyclobutan]-4-yl)amino)-2-hydroxypropyl)-2-(methyloxy)propanamide]: the IC50 was 0.0187 µM in experiment [1] (setting [5]) and 0.0151 µM in experiment [2] (HEK cells, cell-based assay, read-out: HEK cell assay (IC50)).
As for `CC(=O)N[C@@H](Cc1ccccc1)[C@H](O)CN[C@H]1CC2(CCC2)Oc2ncc(C[C@H](C)C(F)(F)F)cc21` [compound 316], the IC50 in experiment [1] (setting [6]) was 0.0136 µM; in experiment [2] (setting [7]), 0.0497 µM.
Turning to `CC(=O)N[C@@H](Cc1ccc2c(c1)OCO2)[C@H](O)CN[C@H]1CC2(CCC2)Oc2ccc(CC(C)(C)C)cc21` [compound 281], the IC50 in experiment [1] (setting [5]) is 0.0112 µM; in experiment [2] (setting [4]), 0.0597 µM.
Take `C[C@@H](F)C(=O)N[C@@H](Cc1ccc2c(c1)OCO2)[C@H](O)CN[C@H]1CC2(CCC2)Oc2ncc(CC(C)(C)C)cc21` [Example 484, (2R)-N-((1S,2R)-1-(1,3-benzodioxol-5-ylmethyl)-3-(((4′S)-6′-(2,2-dimethylpropyl)-3′,4′-dihydrospiro[cyclobutane-1,2′-pyrano[2,3-b]pyridin]-4′-yl)amino)-2-hydroxypropyl)-2-fluoropropanamide]: the IC50 turned out to be 0.029 µM in experiment [1] (Table 2, read-out: BACE1 FRET assay) and 0.056 µM in experiment [2] (Homo sapiens, HEK293, Table 2, HEK cells, read-out: HEK cell assay).
In the case of `CO[C@H](C)C(=O)N[C@@H](Cc1cccc(F)c1)[C@H](O)CN[C@H]1CC2(CCC2)Oc2c(-c3ccncc3)cc(CC(C)(C)F)cc21` [compound 564], the IC50 is 0.032 µM in experiment [1] (BACE enzyme assay, read-out: BACE1 FRET assay) and 0.029 µM in experiment [2] (Homo sapiens, HEK293, HEK cells, read-out: HEK cell assay).
Turning to `CCNc1cc(Br)cc2c1OC1(CCC1)C[C@@H]2NC[C@@H](O)[C@H](Cc1cccc(F)c1)NC(=O)COC` [compound 270], the IC50 in experiment [1] (setting [5]) was 0.448 µM; in experiment [2] (setting [4]) it was 0.157 µM.
With `CO[C@H](C)C(=O)N[C@@H](Cc1ccc2c(c1)OCO2)[C@H](O)CN[C@H]1CC2(CCC2)Oc2c1cc(CC(C)(C)C)nc2N(C)C` [compound 135], the IC50 in experiment [1] (setting [3]) worked out at 0.0647 µM; in experiment [2] (setting [4]), 0.175 µM.
For `COCC(=O)N[C@@H](Cc1ccc(F)cc1)[C@H](O)CN[C@H]1CC2(CCC2)Oc2ccc(CC(C)(C)C#N)cc21` [compound 162] the same measures were 0.0446 µM and 0.0311 µM.
